Assay [1] deals with TNFα production in LPS-stimulated human monocytes. Nature of the assay: Cot Monocyte TNFα Cell Based Assay. The conditions noted are these: for EC50: Homo sapiens, Monocyte, LPS-stimulated human monocytes, TNFα TR-FRET, read-out: EC50 TNF; for IC50/EC50 [nM]: EC50 (TNFα, monocytes): second value of the cell IC50/EC50, human monocytes, 50 pg/ml LPS, 4 hours. Put shortly: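 Cells at 5,000/well were pretreated with compound for 1 h at 37 °C (0.5% DMSO final), then stimulated with 50 pg/ml LPS for 4 h at 37 °C. Supernatant TNFα was measured by two-antibody TR-FRET after overnight room-temperature incubation; values are percent of control between unstimulated and stimulated wells.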
For orientation: TR-FRET usually uses a lanthanide donor and a delayed reading to cut background.

Assay [2] deals with T1, human Cot catalytic domain (30-397 amino acids) (Homo sapiens, UniProt P41279).
T1 construct: Purified recombinant human Cot catalytic domain (30-397 amino acids) was purchased from Cama Biosciences; purchased Cama Biosciences (so in the source)
Nature of the assay: High Throughput Cot Biochemical Assay (KinEASE TR-FRET). The following applies: 400 μM ATP. Summed up: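 Reaction of 5 nM recombinant human Cot catalytic domain (aa 30-397) with 1 μM STK3 peptide (XL665-labeled) and 400 μM ATP in 10 mM MOPS pH 7.0, 10 mM MgOAc, 1 mM DTT, 0.5 mg/mL BSA, 0.1% DMSO. Phosphopeptide detected by TR-FRET with europium anti-phospho antibody.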

The target in assay [3] is T2, Human EGFR, cytoplasmic domain [669-1210] (Homo sapiens, UniProt P00533).
T2 construct: purchased Cama Biosciences (so in the source)
Nature of the assay: High Throughput EGFR Biochemical Assay (KinEASE TR-FRET). The method, then: Example 62: High Throughput EGFR Biochemical Assay
EGFR activity was measured using KinEASE (Cisbio), a time-resolved fluorescence resonance energy transfer (TR-FRET) immunoassay. In this assay, EGFR-catalyzes the phosphorylation of a universal Tyrosine kinase peptide substrate labeled with XL665. Europium conjugated phosphor-tyrosine specific antibody binds the resulting phosphorylated peptide. Formation of phosphorylated peptide is quantified by TR-FRET with Europium as the donor and XL665 the acceptor. The assay was performed in two main steps. The first step is the kinase reaction step and the second step is the detection step with TR-FRET reagents. In brief, test compounds 1:3 serially diluted in DMSO were delivered into Corning white, low volume, non-binding 384 well plates using the Echo 550 acoustic liquid dispenser (Labcyte®). […] After 60 min of incubation at room temperature, 10 μL of Stop and Detect Solution (1:400 Europium Cryptate labeled anti-phosphorylated peptide antibody solution and 125 nM strepavidin-XL665 Tracer in a 50 mM Hepes pH 7.0 detection buffer containing sufficient EDTA) was added.

[4] abbreviates: Cot KinEASE TR-FRET, read-out: IC50 HTRF.

Where two headings read alike, the source gives them in different places.

T1 sequence (P41279 30-397): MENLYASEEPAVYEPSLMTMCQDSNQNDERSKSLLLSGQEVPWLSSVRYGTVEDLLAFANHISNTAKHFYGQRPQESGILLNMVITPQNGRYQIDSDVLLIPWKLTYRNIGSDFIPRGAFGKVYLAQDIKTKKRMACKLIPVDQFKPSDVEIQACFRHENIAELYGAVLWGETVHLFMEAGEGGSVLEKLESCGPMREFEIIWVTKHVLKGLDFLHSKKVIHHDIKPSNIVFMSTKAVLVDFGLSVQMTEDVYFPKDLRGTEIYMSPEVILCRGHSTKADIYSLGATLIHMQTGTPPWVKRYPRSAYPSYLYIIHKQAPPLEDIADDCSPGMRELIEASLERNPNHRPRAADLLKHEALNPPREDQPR
T2 sequence (P00533 669-1210): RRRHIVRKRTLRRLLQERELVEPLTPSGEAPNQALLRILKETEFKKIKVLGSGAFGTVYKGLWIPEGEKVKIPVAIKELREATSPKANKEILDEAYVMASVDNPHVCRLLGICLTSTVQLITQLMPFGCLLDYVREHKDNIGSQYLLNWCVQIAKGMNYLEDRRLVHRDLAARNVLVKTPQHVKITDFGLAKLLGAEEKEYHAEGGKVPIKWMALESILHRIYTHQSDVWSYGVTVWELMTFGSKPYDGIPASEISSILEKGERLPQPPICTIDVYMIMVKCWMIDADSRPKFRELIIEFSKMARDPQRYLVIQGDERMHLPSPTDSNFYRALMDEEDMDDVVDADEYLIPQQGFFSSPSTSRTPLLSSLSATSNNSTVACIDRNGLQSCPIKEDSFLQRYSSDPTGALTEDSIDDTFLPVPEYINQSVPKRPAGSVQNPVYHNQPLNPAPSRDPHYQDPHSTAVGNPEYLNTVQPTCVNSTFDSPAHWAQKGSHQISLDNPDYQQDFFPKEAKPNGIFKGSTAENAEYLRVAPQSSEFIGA

Broadly, the EC50 is the midpoint of the concentration-response curve. In general, IC50 refers to the concentration at which inhibition is half-maximal. As for `CCN1CCC(n2cc([C@@H](Nc3cc(Cl)c4ncc(C#N)c(Nc5ccc(F)c(Cl)c5)c4c3)c3ccccc3)nn2)CC1` [Example 919, (S)-8-chloro-4-((3-chloro-4-fluorophenyl)amino)-6-(((1-(1-ethylpiperidin-4-yl)-1H-1,2,3-triazol-4-yl)(phenyl)methyl)amino) quinoline-3-carbonitrile], in assay [1], the EC50 was determined as 62 nM. Also, the “IC50/EC50 [nM]: EC50 (TNFα, monocytes)” value in assay [1] was determined as 62 nM. In addition, the IC50 came to 2 nM in assay [2] (setting [4]) and 2290 nM in assay [3].

As for `Cn1cc(C(Nc2cc(Cl)c3ncc(C#N)c(Nc4ccc(F)c(Cl)c4)c3c2)c2ccccc2)nn1` (centres unmarked) [Example 920, 8-chloro-4-((3-chloro-4-fluorophenyl)amino)-6-(((1-methyl-1H-1,2,3-triazol-4-yl)(phenyl)methyl)amino) quinoline-3-carbonitrile], in assay [1], the concentration giving a half-maximal response (EC50) was 215 nM and the “IC50/EC50 [nM]: EC50 (TNFα, monocytes)” value came out at 215 nM. In addition, in assay [2] (setting [4]), the 50% inhibitory concentration (IC50) turned out to be 10 nM. This compound gave an IC50 in assay [3] of over 10000 nM.

Regarding `Cn1cc(CNc2cc(Cl)c3ncc(C#N)c(Nc4ccc(F)c(Cl)c4)c3c2)nn1` [Comparative Example 3, reference compound], the “IC50/EC50 [nM]: EC50 (TNFα, monocytes)” value in assay [1] is listed as over 10000 nM. For the same compound, the IC50 is 67 nM in assay [2] (IC50/EC50 [nM]: IC50 (Cot), first value of the cell IC50/EC50, 5 nM Cot) and over 10000 nM in assay [3].

For the origin of these results see patent US10316017B2, “COT modulators and methods of use thereof” (Gilead Sciences, Inc., priority 2015, dated 2019).
